Test results reported in US8357659B2, “Method of treating pain or itching with APETx2 peptide toxin” (priority 2008, dated 2013).

Tests used:
human ASIC3 channels = molecular target: T1, human ASIC3 channels (Homo sapiens, UniProt Q9UHC3); test: Whole cell patch clamp of human ASIC3 in transfected F-11 cells; format: cell-based; conditions: APETx2 at 1 μM; acidification pH 8.0 to pH 7.0
T1 construct: expressed in transfected cells; host or cells: F-11 cells, vector pASIC3h-IRES-EGFP, JetPEI
T1 sequence (Q9UHC3 1-531): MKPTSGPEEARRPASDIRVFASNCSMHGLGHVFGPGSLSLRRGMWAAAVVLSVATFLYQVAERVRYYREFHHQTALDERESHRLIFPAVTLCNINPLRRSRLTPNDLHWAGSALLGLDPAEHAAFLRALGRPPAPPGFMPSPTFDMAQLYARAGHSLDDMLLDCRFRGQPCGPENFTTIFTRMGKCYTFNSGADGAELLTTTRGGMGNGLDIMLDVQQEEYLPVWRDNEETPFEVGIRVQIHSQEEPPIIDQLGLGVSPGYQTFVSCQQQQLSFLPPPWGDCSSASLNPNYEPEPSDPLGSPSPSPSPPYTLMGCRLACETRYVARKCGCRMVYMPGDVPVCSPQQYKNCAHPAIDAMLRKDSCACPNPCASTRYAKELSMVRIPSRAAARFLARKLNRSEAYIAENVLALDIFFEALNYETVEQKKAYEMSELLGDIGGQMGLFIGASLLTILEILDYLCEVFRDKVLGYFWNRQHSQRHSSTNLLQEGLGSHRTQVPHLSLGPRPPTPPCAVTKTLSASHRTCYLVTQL
Experimental: F-11 cells (refs. 44, 45, 46, 47]) were cultured in 5% of CO2 at a density of 50,000 cells per 35 mm Petri dish. The culture medium contained HAM F-12 medium (Invitrogen) supplemented with 15% foetal bovine serum (ICN Biomedicals), 1×HAT (sodium hypoxanthine, aminopterine and thymidine), 200 μg/ml of allo-4-hydroxy-L-proline (Sigma-Aldrich) and 1% antibiotics. One day after seeding, the cells were transfected with ASIC1a or ASIC3 DNAc (rat clones) using Lipofectamine™ (Invitrogen) according to the manufacturer's instructions using the vectors pCI-ASIC1ar+pIRES2-EGFP (ratio 1:2) or pCI-ASIC3r+pIRES2-EGFP (ratio 1:10) ([ref. 36]), quoted above). For the experiments concerning the human ASIC3 clone (refer to experiments on the effects of the APETx2 toxin on the human form of the ASIC3 channel), the cells were transfected with the DNAc of human ASIC3 using the transfection agent JetPEI (Polypus Transfection) according to the manufacturer's instructions with the aid of the vector pASIC3h-IRES-EGFP. […]
The whole cell configuration of the patch clamp method was used ([ref. 48]) in order to measure the membrane currents (imposed voltage) or the membrane potentials (imposed current). […] The data were sampled at 10 kHz, digitised using a Digidata 1322A A-D/D-A converter (Axon Instruments) and recorded on a hard disk using pClamp software (version 9.2.0.11, Axon Instruments). […]

heteromer ASIC1a+3 = molecular target: T2, heteromer ASIC1a+3 (Rattus norvegicus, UniProt O35240+P55926); conditions: relative to ASIC3 / ASIC2b+3; cited from earlier work
T2 sequence (P55926 1-526): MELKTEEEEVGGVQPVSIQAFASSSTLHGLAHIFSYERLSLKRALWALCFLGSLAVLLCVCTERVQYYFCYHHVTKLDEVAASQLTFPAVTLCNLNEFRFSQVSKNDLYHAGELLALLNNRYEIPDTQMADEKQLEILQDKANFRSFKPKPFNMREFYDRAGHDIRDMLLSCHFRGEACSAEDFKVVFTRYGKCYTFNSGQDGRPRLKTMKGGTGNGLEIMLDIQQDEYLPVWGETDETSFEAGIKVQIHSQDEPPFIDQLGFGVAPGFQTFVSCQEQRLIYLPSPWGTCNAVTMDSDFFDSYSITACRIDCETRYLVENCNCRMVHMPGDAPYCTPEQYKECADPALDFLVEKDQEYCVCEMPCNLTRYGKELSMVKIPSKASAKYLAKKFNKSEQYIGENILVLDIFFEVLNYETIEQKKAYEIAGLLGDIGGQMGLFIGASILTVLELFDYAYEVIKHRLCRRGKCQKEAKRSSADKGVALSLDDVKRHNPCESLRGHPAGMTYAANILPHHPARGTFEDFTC
T2 sequence (O35240 1-533): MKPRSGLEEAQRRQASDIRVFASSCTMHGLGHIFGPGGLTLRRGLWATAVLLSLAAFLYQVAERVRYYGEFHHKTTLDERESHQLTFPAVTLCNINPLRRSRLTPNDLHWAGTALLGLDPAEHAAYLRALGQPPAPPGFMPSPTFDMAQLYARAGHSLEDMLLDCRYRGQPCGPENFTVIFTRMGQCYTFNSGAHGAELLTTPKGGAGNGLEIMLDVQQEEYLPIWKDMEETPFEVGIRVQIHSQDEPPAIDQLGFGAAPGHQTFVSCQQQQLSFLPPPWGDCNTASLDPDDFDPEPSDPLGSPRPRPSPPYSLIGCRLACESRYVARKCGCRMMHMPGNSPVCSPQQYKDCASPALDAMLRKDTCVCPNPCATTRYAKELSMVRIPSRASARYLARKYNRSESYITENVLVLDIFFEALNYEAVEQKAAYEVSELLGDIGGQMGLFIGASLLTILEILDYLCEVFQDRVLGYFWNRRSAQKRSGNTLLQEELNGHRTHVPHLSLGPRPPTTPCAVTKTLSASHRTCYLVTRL

## peptide of 42 amino acids (SEQ ID NO: 3), three disulphide bonds, from sea anemone Anthopleura elegantissima; blocks ASIC3 [APETx2]
Human ASIC3 channels
  amplitude of the human ASIC3 currents: significantly reduced
Heteromer ASIC1a+3
  affinity for the heteromer ASIC1a+3: less affinity
